Test results: patent US20240381872A1, “SUBSTITUTED 2,3-DIHYDRO[1,3]THIAZOLO[4,5-B]PYRIDINES, SALTS THEREOF AND THEIR USE AS HERBICIDALLY ACTIVE SUBSTANCES” (BAYER AKTIENGESELLSCHAFT, priority 2021, published 2024)

What was measured:
Type in all cases: in vivo
[1] = tested on: Polygonum convolvulus (POLCO); assay: Herbicidal pre-emergence action, section C (Table C7); details: Fallopia convolvulus, pre-emergence, 504 h; application rate 320 g/ha; visual grading after ca. 3 weeks; read-out: pre-emergence activity against POLCO in %
Summary of the method: (§1)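 Pre-emergence greenhouse test: visual percent damage scored about 3 weeks after treatment, relative to untreated pots (100% = dead, 0% = no effect). Formulated compounds (WP or EC, plus 0.5% additive) were applied in 600 l water/ha to the covering soil over seeds sown in sandy loam.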

[2] = tested on: Kochia scoparia (KCHSC); assay: Herbicidal post-emergence action, section B (Table B4); details: Bassia scoparia, post-emergence, 504 h; application rate 1280 g/ha; visual rating about 3 weeks after treatment vs untreated controls; read-out: post-emergence activity against KCHSC in %
Summary of the method: (§2)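 Scores are visual % activity relative to untreated plants (0% = like control, 100% = dead), taken about 3 weeks after spraying. Compounds, as WP or EC in water with 0.5% additive at 600 L/ha, went onto one-leaf-stage weeds grown from seed in sandy loam under greenhouse conditions.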

[3] = tested on: Abutilon theophrasti (ABUTH); assay: Herbicidal post-emergence action, section B (Table B1); details: Abutilon theophrasti, 504 h, application rate 1280 g/ha, rated visually after about 3 weeks, read-out: post-emergence activity against ABUTH in %
Summary of the method: as §2

[4] = tested on: Abutilon theophrasti (ABUTH); assay: Herbicidal post-emergence action, section E (Table E1); details: Abutilon theophrasti, post-emergence, 504 h; application rate 320 g/ha; assessed visually after ca. 3 weeks; read-out: post-emergence activity against ABUTH in %
Source text: Seeds of mono- and dicotyledonous weed plants and crop plants were sown, in plastic or organic planting pots, in sandy loam, covered with soil and grown in a greenhouse under controlled growth conditions. 2 to 3 weeks after sowing, the test plants were sprayed in the single-leaf stage. The compounds according to the invention, formulated in form of wettable powders (WP) or as emulsifiable concentrates (EC), were sprayed onto the green plant parts as aqueous suspension or emulsion, with the addition of 0.5% of an additive, at an application rate of 600 l of water/ha (converted). The test plants were placed in the greenhouse for ca. 3 weeks under optimum growth conditions, and then the effect of the preparations was assessed visually in comparison with untreated controls (herbicidal effect in percent (%): 100% effect=plants have died off, 0% effect=as control plants).

[5] = tested on: Digitaria sanguinalis (DIGSA); assay: Herbicidal pre-emergence action, section A (Table A12); details: Digitaria sanguinalis, 504 h, application rate 1280 g/ha, read-out: pre-emergence activity against DIGSA in %
Summary of the method: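 Percent herbicidal effect, visually graded about 3 weeks post-treatment against untreated pots, reflects pre-emergence application of WP or EC formulations to the soil surface over seeds sown in sandy loam, using 0.5% additive and 600 l of water per hectare.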

[6] = tested on: Digitaria sanguinalis (DIGSA); assay: Herbicidal pre-emergence action, section C (Table C12); details: Digitaria sanguinalis, pre-emergence, 504 h; application rate 320 g/ha; visual grading after ca. 3 weeks; read-out: pre-emergence activity against DIGSA in %
Summary of the method: as §1

[7] = tested on: Glycine max (GLXMA); assay: Post-emergence effects on crop plants, section F (Table F4); details: Glycine max, 504 h, application rate 80 g/ha, read-out: post-emergence activity against GLXMA in %
Summary of the method: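 Percent damage was rated by eye roughly 3 weeks after treatment against untreated plants, where 0% = as control and 100% = died off. Spraying used WP or EC formulations plus 0.5% additive at 600 l water/ha, with rates of 320 g/ha or less. Plants were at the single-leaf stage, sown 2-3 weeks earlier in sandy loam under greenhouse conditions.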

[8] = tested on: Echinochloa crus-galli (ECHCG); assay: Herbicidal pre-emergence action, section C (Table C3); details: Echinochloa crus-galli, pre-emergence, 504 h; application rate 320 g/ha; visual grading after ca. 3 weeks vs untreated controls; read-out: pre-emergence activity against ECHCG in %
Summary of the method: as §1

[9] = tested on: Veronica persica (VERPE); assay: Herbicidal pre-emergence action, section C (Table C10); details: Veronica persica, pre-emergence, 504 h; application rate 320 g/ha; visual grading after ca. 3 weeks; read-out: pre-emergence activity against VERPE in %
Summary of the method: as §1

[10] = tested on: Amaranthus retroflexus (AMARE); assay: Herbicidal pre-emergence action, section C (Table C11); details: Amaranthus retroflexus, pre-emergence, 504 h; application rate 80 g/ha; visual grading after ca. 3 weeks; read-out: pre-emergence activity against AMARE in %
Summary of the method: as §1

[11] = tested on: Amaranthus retroflexus (AMARE); assay: Herbicidal post-emergence action, section B (Table B11); details: Amaranthus retroflexus, post-emergence, 504 h; application rate 1280 g/ha; visual rating about 3 weeks after treatment vs untreated controls; read-out: post-emergence activity against AMARE in %
Summary of the method: as §2

Compound: CC1(C(=O)N2CSc3cc(Br)c(-c4ccccc4Cl)nc32)CC(Cl)=NO1 (centres unmarked) [Example I-141, [6-bromo-5-(2-chlorophenyl)[1,3]thiazolo[4,5-b]pyridin-3(2H)-yl](3-chloro-5-methyl-4,5-dihydro-1,2-oxazol-5-yl)methanone]
- pest or weed control at 320 g/ha [1]: 80%
- pest or weed control at 1280 g/ha [2]: 90%
- pest or weed control at 1280 g/ha [3]: 90%
- pest or weed control at 320 g/ha [4]: 80%
- pest or weed control at 1280 g/ha [5]: 100%
- pest or weed control at 320 g/ha [6]: 90%
- percent crop plant damage at 80 g/ha [7]: 20%
- pest or weed control at 320 g/ha [8]: 100%
- pest or weed control at 320 g/ha [9]: 90%
- pest or weed control at 80 g/ha [10]: 100%
- pest or weed control at 1280 g/ha [11]: 90%
